# Laboratory results from US12404242B2, “Compositions and methods for making and using small molecules in the treatment of cancer” (Reglagene, Inc., priority 2021, dated 2025).
# What was measured:
# Format in all cases: cell-based, human
# Settings in all cases: 72 hours of treatment
# [1] = test system: 22RV1 cells; test: Cell viability (AlamarBlue), 22RV1 prostate cancer cells; set-up: key to EC50 (μM) in 22RV1 cells: Inactive: less than 50% inhibition at the highest concentration tested at 50 μM
# Experimental: (§1) In another exemplary method, half maximal effective concentration (EC50) was determined for some compounds and their isomers as disclosed herein in a variety of human cancer cell lines. In brief, cells from two prostate cancer cell lines (LNCaP, 22RV1), one glioblastoma cell line (U87), one breast cancer cell line (MCF7), a glioma cell line (LN18), a normal prostate cell line (RWPE1), and a glioblastoma cell line (T98G) were plated in a multi-well plate. After 24 hours, one of the compounds herein was added to the well at increasing concentrations. After 72 hours of treatment, cell viability was assessed using AlamrBlue® (Invitrogen) and fluorescence was read using the CLARIOstar Plus Multilabel Plate Reader (BMG Labtech). Samples were normalized to no treatment controls. EC50 values were determined using GraphPad Prism.
# [2] = test system: LNCaP cells; test: Cell viability (AlamarBlue), LNCaP prostate cancer cells; set-up: key to EC50 (μM) in LNCaP cells: Inactive: less than 50% inhibition at the highest concentration tested at 50 μM
# Experimental: as §1
# [3] = test system: U87 cells; test: Cell viability (AlamarBlue), U87 glioblastoma cells; set-up: key to EC50 (μM) in U87 cells: Inactive: less than 50% inhibition at the highest concentration tested at 50 μM
# Experimental: as §1
EC50 (μM) in 22RV1 cells [1],EC50 (μM) in LNCaP cells [2],"EC50 ([3]; Homo sapiens, U-87 MG, 72 h) [µM]",EC50 (μM) in U87 cells [3],Structure (SMILES),further results
–,–,5.5,–,"COC1CCC(C(=O)NC(=O)Nc2ccc(Oc3ccc(C(C)C)cn3)c(C)c2)CC1 (single isomer, unassigned) [Compound 34A, N-((4-((5-isopropylpyridin-2-yl)oxy)-3-methylphenyl)carbamoyl)-4-methoxycyclohexane-1-carboxamide]","EC50 ([1]; Homo sapiens, 22Rv1, 72 h): 5.9 µM; EC50 ([2]; Homo sapiens, LNCaP, 72 h): 1.2 µM"
Inactive,Inactive,–,Inactive,"COC1CCC(C(=O)NC(=O)Nc2ccc(Oc3ccc(C(C)C)cn3)c(C)c2)CC1 (single isomer, unassigned) [Compound 34B, N-((4-((5-isopropylpyridin-2-yl)oxy)-3-methylphenyl)carbamoyl)-4-methoxycyclohexane-1-carboxamide]",–
Inactive,Inactive,–,Inactive,"COC1CCC(C(=O)NC(=O)Nc2ccc(Oc3nccn3C)c(C)c2)CC1 (centres unmarked) [Compound 28, 1-(4-methoxycyclohexanecarbonyl)-3-{3-methyl-4-[(1-methyl-1H-imidazol-2-yl)oxy]phenyl}urea]",–
–,–,5.3,–,"COC1CCC(C(=O)NC(=O)Nc2ccc(Oc3ncc(C(F)(F)F)cn3)c(C)c2)CC1 (centres unmarked) [Compound 29, 1-(4-methoxycyclohexanecarbonyl)-3-(3-methyl-4-{[5-(trifluoromethyl)pyrimidin-2-yl)oxy}phenyl)urea]","EC50 ([1]; Homo sapiens, 22Rv1, 72 h): 4.7 µM; EC50 ([2]; Homo sapiens, LNCaP, 72 h): 6.5 µM"
–,–,12.2,–,"COC1CCC(C(=O)NC(=O)Nc2ccc(Oc3ncc(C(C)C)cn3)c(C)c2)CC1 (centres unmarked) [Compound 30, 1-(4-methoxycyclohexanecarbonyl)-3-(3-methyl-4-{[5-(propan-2-yl)pyrimidin-2-yl)oxy}phenyl)urea]","EC50 ([1]; Homo sapiens, 22Rv1, 72 h): 14.4 µM; EC50 ([2]; Homo sapiens, LNCaP, 72 h): 8.5 µM"
–,–,–,Inactive,"COC1CCC(C(=O)NC(=O)Nc2ccc(Oc3ccc(C)cn3)c(C)c2)CC1 (centres unmarked) [Compound 32, 1-(4-methoxycyclohexanecarbonyl)-3-{3-methyl-4-[(5-methylpyridin-2-yl)oxy]phenyl}urea]","EC50 ([1]; Homo sapiens, 22Rv1, 72 h): 35 µM; EC50 ([2]; Homo sapiens, LNCaP, 72 h): 34 µM"
Inactive,Inactive,–,Inactive,"COC1CCC(C(=O)NC(=O)Nc2ccc(Oc3ccc(C(F)(F)F)cn3)c(C)c2)CC1 (centres unmarked) [Compound 33, 4-methoxy-N-((3-methyl-4-((5-(trifluoromethyl)pyridin-2-yl)oxy)phenyl)carbamoyl)cyclohexane-1-carboxamide]",–
Inactive,Inactive,–,Inactive,"Cc1cc(NC(=O)NC(=O)C2CCC(OCC3CC3)CC2)ccc1Oc1ncc(Cl)cn1 (centres unmarked) [Compound 38, N-((4-((5-chloropyrimidin-2-yl)oxy)-3-methylphenyl)carbamoyl)-4-(cyclopropylmethoxy)cyclohexane-1-carboxamide]",–

# Second part, the molecule before the results:
Structure (SMILES),EC50 (μM) in 22RV1 cells [1],EC50 (μM) in LNCaP cells [2],"EC50 ([3]; Homo sapiens, U-87 MG, 72 h) [µM]",EC50 (μM) in U87 cells [3],further results
"Cc1cc(NC(=O)NC(=O)C2CCOC2)ccc1Oc1ncc(Cl)cn1 (racemic) [Compound 5, rac-1-{4-[(5-chloropyrimidin-2-yl)oxy]-3-methylphenyl}-3-[(3R)-oxolane-3-carbonyl]urea]",Inactive,Inactive,–,–,–
"COC1CCC(C(=O)NC(=O)Nc2ccc(Oc3ncc(C)cn3)c(C)c2)CC1 (single isomer, unassigned) [Compound 27A, 4-methoxy-N-((3-methyl-4-((5-methylpyrimidin-2-yl)oxy)phenyl)carbamoyl)cyclohexane-1-carboxamide]",–,–,–,–,EC50 [3]: 2.1 µM; EC50 [1]: 2.8 µM; EC50 [2]: 1.3 µM
"COC1CCC(C(=O)NC(=O)Nc2ccc(Oc3ncc(C)cn3)c(C)c2)CC1 (single isomer, unassigned) [Compound 27B, 4-methoxy-N-((3-methyl-4-((5-methylpyrimidin-2-yl)oxy)phenyl)carbamoyl)cyclohexane-1-carboxamide]",–,–,–,–,EC50 [3]: 23.3 µM; EC50 [1]: 25 µM; EC50 [2]: 9.8 µM
"Cc1cc(NC(=O)NC(=O)C2CCCC2)ccc1Oc1ncc(Cl)cn1 [Compound 3, 1-{4-[(5-chloropyrimidin-2-yl)oxy]-3-methylphenyl}-3-cyclopentanecarbonylurea]",Inactive,Inactive,–,–,–
"Cc1cc(NC(=O)NC(=O)C2CCOCC2)ccc1Oc1ncc(Cl)cn1 [Compound 4, 3-{4-[(5-chloropyrimidin-2-yl)oxy]-3-methylphenyl}-1-(oxane-4-carbonyl)urea]",Inactive,Inactive,–,–,–
"COC1CC(C(=O)NC(=O)Nc2ccc(Oc3cnc(N4CCN(C)CC4)nc3)c(C)c2)C1 (centres unmarked) [Compound 35, 3-methoxy-N-((3-methyl-4-((2-(4-methylpiperazin-1-yl)pyrimidin-5-yl)oxy)phenyl)carbamoyl)cyclobutane-1-carboxamide]",Inactive,Inactive,49,–,–
"COC1CCC(C(=O)NC(=O)Nc2ccc(Oc3cnc(N4CCN(C)CC4)nc3)c(C)c2)CC1 (centres unmarked) [Compound 36, 4-methoxy-N-((3-methyl-4-((2-(4-methylpiperazin-1-yl)pyrimidin-5-yl)oxy)phenyl)carbamoyl)cyclohexane-1-carboxamide]",–,–,31,–,"EC50 ([1]; Homo sapiens, 22Rv1, 72 h): 34 µM; EC50 ([2]; Homo sapiens, LNCaP, 72 h): 34 µM"
"O=C(NC(=O)C1CCC(OCC2CC2)CC1)Nc1ccc(Oc2ncc(Cl)cn2)c(F)c1 (centres unmarked) [Compound 37, N-((4-((5-chloropyrimidin-2-yl)oxy)-3-fluorophenyl)carbamoyl)-4-(cyclopropylmethoxy)cyclohexane-1-carboxamide]",Inactive,Inactive,–,Inactive,–
"Cc1cc(NC(=O)NC(=O)C2CC(OCC3CC3)C2)ccc1Oc1nccs1 (centres unmarked) [Compound 39, 3-(cyclopropylmethoxy)-N-((3-methyl-4-(thiazol-2-yloxy)phenyl)carbamoyl)cyclobutane-1-carboxamide]",Inactive,Inactive,–,Inactive,–
"COC1(C(=O)NC(=O)Nc2ccc(Oc3ccc(Cl)cn3)c(C)c2)CC1 [Compound 65, N-((4-((5-chloropyridin-2-yl)oxy)-3-methylphenyl)carbamoyl)-1-methoxycyclopropane-1-carboxamide]",Inactive,–,–,Inactive,–
"COC1CC(C(=O)NC(=O)Nc2cc(C)c(Oc3ccc(F)cn3)c(F)c2)C1 (centres unmarked) [Compound 72, N-((3-fluoro-4-((5-fluoropyridin-2-yl)oxy)-5-methylphenyl)carbamoyl)-3-methoxycyclobutane-1-carboxamide]",–,–,1.1,–,"EC50 ([1]; Homo sapiens, 22Rv1, 72 h): 0.91 µM"
"COC1CC(C(=O)NC(=O)Nc2cc(C)c(Oc3ncccn3)c(F)c2)C1 (centres unmarked) [Compound 74, N-((3-fluoro-5-methyl-4-(pyrimidin-2-yloxy)phenyl)carbamoyl)-3-methoxycyclobutane-1-carboxamide]",–,–,2.5,–,"EC50 ([1]; Homo sapiens, 22Rv1, 72 h): 1.65 µM"
"COC1CCC(C(=O)NC(=O)Nc2ccc(Oc3ccc(C4CC4)cn3)c(C)c2)CC1 (centres unmarked) [Compound 75, N-((4-((5-cyclopropylpyridin-2-yl)oxy)-3-methylphenyl)carbamoyl)-4-methoxycyclohexane-1-carboxamide]",–,–,–,Inactive,–
"COC1CC(C(=O)NC(=O)Nc2cc(C)c(Oc3nccs3)c(F)c2)C1 (centres unmarked) [Compound 77, N-((3-fluoro-5-methyl-4-(thiazol-2-yloxy)phenyl)carbamoyl)-3-methoxycyclobutanecarboxamide]",–,–,22,–,–
"COC1CC(C)(C(=O)NC(=O)Nc2ccc(Oc3ccc(Cl)cn3)c(C)c2)C1 (centres unmarked) [Compound 79, N-((4-((5-chloropyridin-2-yl)oxy)-3-methylphenyl)carbamoyl)-3-methoxy-1-methylcyclobutane-1-carboxamide]",–,–,–,Inactive,–
"Cc1cc(NC(=O)NC(=O)C2CC(O)C2)ccc1Oc1ccc(Cl)cn1 (centres unmarked) [Compound 80, N-((4-((5-chloropyridin-2-yl)oxy)-3-methylphenyl)carbamoyl)-3-hydroxycyclobutane-1-carboxamide]",–,–,–,Inactive,–
"COC1CC1C(=O)NC(=O)Nc1ccc(Oc2ncc(Cl)cn2)c(C)c1 (centres unmarked) [Compound 81, N-((4-((5-chloropyrimidin-2-yl)oxy)-3-methylphenyl)carbamoyl)-2-methoxycyclopropane-1-carboxamide]",–,–,–,Inactive,–
"COC1CC1C(=O)NC(=O)Nc1ccc(Oc2ccc(Cl)cn2)c(C)c1 (centres unmarked) [Compound 82, N-((4-((5-chloropyridin-2-yl)oxy)-3-methylphenyl)carbamoyl)-2-methoxycyclopropane-1-carboxamide]",–,–,–,Inactive,–
"COC12CC(C(=O)NC(=O)Nc3ccc(Oc4nccs4)c(C)c3)(C1)C2 [Compound 83, 3-methoxy-N-((3-methyl-4-(thiazol-2-yloxy)phenyl)carbamoyl)bicyclo[1.1.1]pentane-1-carboxamide]",–,–,0.33,–,–
"COC12CC(C(=O)NC(=O)Nc3ccc(Oc4ccc(F)cn4)c(C)c3)(C1)C2 [Compound 89, N-((4-((5-fluoropyridin-2-yl)oxy)-3-methylphenyl)carbamoyl)-3-methoxybicyclo[1.1.1]pentane-1-carboxamide]",–,–,0.2,–,–
